Reference: ChEMBL document CHEMBL6103580, “Synthesis and biological evaluation of natural cleistanolate, its enantiomer and analogues” (Eur J Med Chem, 2025)
Calls of active or inactive are those of the source. The rule behind the calls is not given here.

Tests used:
[1] = test system: Raji; test: Antiproliferative activity against human Raji cells assessed as inhibition of cell growth incubated for 72 hrs by MTT assay; type: functional, cell-based
[2] = test system: MCF7; test: Antiproliferative activity against human MCF7 cells assessed as inhibition of cell growth incubated for 72 hrs by MTT assay; type: functional, cell-based; conditions: MCF7, 72 h
[3] = Antiproliferative activity against human MRC5 cells assessed as inhibition of cell growth incubated for 72 hrs by MTT assay; type: toxicity, cell-based
[4] = test system: HeLa; test: Antiproliferative activity against human HeLa cells assessed as inhibition of cell growth incubated for 72 hrs by MTT assay; type: functional, cell-based
[5] = test system: Escherichia coli; test: Antibacterial activity against Escherichia coli ZPM 132 assessed as reduction in cell viability incubated for 24 hrs by muller hinton broth microdilution based XTT assay; type: functional
[6] = test system: A549; test: Antiproliferative activity against human A549 cells assessed as inhibition of cell growth incubated for 72 hrs by MTT assay; type: functional, cell-based; conditions: A549, 72 h
[7] = test system: Escherichia coli; test: Antimicrobial activity against Escherichia coli ZPM 132 assessed as reduction in cell viability incubated for 24 hrs by muller hinton broth microdilution based XTT assay; type: functional
[8] = molecular target: Cholinesterase (Homo sapiens) (UniProt P06276); test: Inhibition of human BChE at 100 uM using acetylthiocholine iodide as substrate by DTNB reagent based Ellman spectrophotometric analysis relative to control
[9] = test system: Streptococcus pneumoniae; test: Antibacterial activity against Streptococcus pneumoniae ZPM 187 assessed as reduction in cell viability incubated for 24 hrs by muller hinton broth microdilution based XTT assay; type: functional
[10] = test system: Vibrio cholerae; test: Antibacterial activity against Vibrio cholerae O139 CIRS 245 assessed as reduction in cell viability incubated for 24 hrs by muller hinton broth microdilution based XTT assay; type: functional
[11] = test system: MDA-MB-231; test: Antiproliferative activity against human MDA-MB-231 cells assessed as inhibition of cell growth incubated for 72 hrs by MTT assay; type: functional, cell-based; conditions: MDA-MB-231, 72 h
[12] = test system: Candida tropicalis; test: Antifungal activity against Candida tropicalis CCY 29-7-62 assessed as reduction in fungal growth incubated for 48 hrs by muller hinton broth microdilution based XTT assay; type: functional
[13] = test system: HL-60; test: Antiproliferative activity against human HL-60 cells assessed as inhibition of cell growth incubated for 72 hrs by MTT assay; type: functional, cell-based; conditions: HL-60, 72 h
[14] = test system: K562; test: Antiproliferative activity against human K562 cells assessed as inhibition of cell growth incubated for 72 hrs by MTT assay; type: functional, cell-based; conditions: K562, 72 h
[15] = test system: Jurkat; test: Antiproliferative activity against human Jurkat cells assessed as inhibition of cell growth incubated for 72 hrs by MTT assay; type: functional, cell-based

Chain of Cholinesterase (Homo sapiens) (P06276 whole entry): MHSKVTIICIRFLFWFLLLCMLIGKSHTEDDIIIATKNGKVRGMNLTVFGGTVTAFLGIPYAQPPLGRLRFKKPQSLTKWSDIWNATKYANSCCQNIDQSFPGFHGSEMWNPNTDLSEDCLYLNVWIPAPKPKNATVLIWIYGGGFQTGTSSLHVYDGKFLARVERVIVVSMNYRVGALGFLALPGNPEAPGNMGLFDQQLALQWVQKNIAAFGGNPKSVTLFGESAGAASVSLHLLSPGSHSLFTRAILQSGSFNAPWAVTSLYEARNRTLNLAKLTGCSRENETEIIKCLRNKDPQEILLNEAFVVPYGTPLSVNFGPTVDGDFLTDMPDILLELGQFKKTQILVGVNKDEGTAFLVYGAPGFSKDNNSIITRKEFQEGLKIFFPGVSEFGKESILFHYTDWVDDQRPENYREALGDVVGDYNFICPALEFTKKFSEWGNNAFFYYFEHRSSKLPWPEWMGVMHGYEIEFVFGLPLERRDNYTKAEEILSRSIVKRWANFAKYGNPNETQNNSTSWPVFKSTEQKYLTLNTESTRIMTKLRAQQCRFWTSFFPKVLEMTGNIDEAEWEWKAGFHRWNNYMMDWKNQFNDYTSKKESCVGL

| SMILES | IC50 [1] | IC50 [2] | IC50 at 72 h [3] | IC50 [4] | MBC [5] | IC50 [6] | MIC [7] | inhibition [8] | MBC [9] | MBC [10] | IC50 [11] | MFC [12] | IC50 [13] | IC50 [14] | IC50 [15] |
| --- | --- | --- | --- | --- | --- | --- | --- | --- | --- | --- | --- | --- | --- | --- | --- |
| C=C[C@@H](OCc1ccccc1)[C@@H]1OC(=O)C[C@@H]1O | 22.2 µM | 9.44 µM | > 100 µM | 54.1 µM | > 1000 mg/L | 22.6 µM | > 1000 mg/L | 13% | > 100 mg/L | > 100 mg/L | 21.3 µM | > 100 mg/L | 11.2 µM | 3.95 µM | 11.3 µM |
| C=C[C@@H](O)[C@@H]1OC(=O)C[C@@H]1OC | 18.6 µM | 9.2 µM | > 100 µM | 4.52 µM | – | 19.6 µM | – | – | – | – | 11.9 µM | – | 7.17 µM | 2.74 µM | 5.36 µM |
| C=C[C@@H](OCc1ccccc1)[C@@H]1OC(=O)C[C@@H]1OC | 12.9 µM | 16.9 µM | > 100 µM | 26.4 µM | – | 18.7 µM | – | – | – | – | 42.3 µM | – | 12.1 µM | 4.42 µM | 9.85 µM |
| CO[C@@H]1CC(=O)O[C@@H]1[C@@H](O)[C@H](O)COC(=O)c1ccccc1 | 19.4 µM | 15.6 µM | > 100 µM | 8.61 µM | – | 25.6 µM | – | – | – | – | 31.2 µM | – | 18.9 µM | 10.6 µM | 15.6 µM |
| CO[C@@H]1CC(=O)O[C@@H]1[C@@H](OC(C)=O)[C@H](COC(=O)c1ccccc1)OC(C)=O | 22.3 µM | 5.4 µM | 94.8 µM | 2.45 µM | > 1000 mg/L | 25.4 µM | > 1000 mg/L | 35% | > 100 mg/L | > 100 mg/L | 21.7 µM | > 100 mg/L | 11 µM | 12 µM | 26.3 µM |
| Nc1c2c(nc3ccccc13)CCCC2 | – | – | – | – | – | – | – | 96% | – | – | – | – | – | – | – |
| CO[C@H]1CC(=O)O[C@H]1[C@H](OC(C)=O)[C@H](COC(=O)c1ccccc1)OC(C)=O | 11.2 µM | 5.21 µM | > 100 µM | 7.02 µM | – | 8.32 µM | – | – | – | – | 16.1 µM | – | 21 µM | 8.23 µM | 14 µM |
| CO[C@@H]1CC(=O)O[C@@H]1[C@@H](OC(=O)c1ccccc1)[C@H](COC(=O)c1ccccc1)OC(=O)c1ccccc1 | 14.1 µM | 13.2 µM | > 100 µM | 15.3 µM | > 1000 mg/L | 14.1 µM | > 1000 mg/L | 40% | > 100 mg/L | > 100 mg/L | 13.5 µM | > 100 mg/L | 8.58 µM | 3.36 µM | 15.9 µM |
| CO[C@@H]1CC(=O)O[C@@H]1[C@H]1OC(=O)O[C@H]1COC(=O)c1ccccc1 | 21.3 µM | 4.31 µM | > 100 µM | 7.03 µM | – | 13.4 µM | – | 51% | – | – | 25.8 µM | – | 10.6 µM | 10 µM | 16 µM |
| CO[C@H]1CC(=O)O[C@H]1[C@H](OC(C)=O)[C@@H](COC(=O)c1ccccc1)OC(C)=O | 27.7 µM | 29.4 µM | 87.9 µM | 23.8 µM | > 1000 mg/L | 21.4 µM | > 1000 mg/L | 85% | > 100 mg/L | > 100 mg/L | 13.2 µM | > 100 mg/L | 19.4 µM | 16.2 µM | 24.2 µM |
| CO[C@@H]1CC(=O)O[C@@H]1[C@@H](O)[C@@H](O)COC(=O)c1ccccc1 | 15.4 µM | 14.4 µM | > 100 µM | 7.65 µM | – | 11.4 µM | – | – | – | – | 27.7 µM | – | 12.1 µM | 11.4 µM | 20.2 µM |
| C=C[C@H](OCc1ccccc1)[C@H]1OC(=O)C[C@H]1OC | 34.4 µM | 5.67 µM | > 100 µM | 11.5 µM | – | 27.9 µM | – | – | – | – | 12.6 µM | – | 12.7 µM | 7.59 µM | 11.6 µM |
| CO[C@H]1CC(=O)O[C@H]1[C@H](O)[C@@H](O)COC(=O)c1ccccc1 | 21 µM | 12.8 µM | > 100 µM | 10.6 µM | – | 29.6 µM | – | – | – | – | 19.9 µM | – | 10.3 µM | 9.89 µM | 32 µM |
| C=C[C@H](O)[C@H]1OC(=O)C[C@H]1OC | 32.9 µM | 4.23 µM | > 100 µM | 10.9 µM | > 1000 mg/L | 28.3 µM | > 1000 mg/L | inactive | > 100 mg/L | > 100 mg/L | 11.8 µM | > 100 mg/L | 11.7 µM | 8.05 µM | 12.8 µM |
| CO[C@H]1CC(=O)O[C@H]1[C@H](OC(=O)c1ccccc1)[C@@H](COC(=O)c1ccccc1)OC(=O)c1ccccc1 | 17 µM | 1.31 µM | > 100 µM | 5.58 µM | – | 24.1 µM | – | – | – | – | 23.7 µM | – | 6.38 µM | 17.9 µM | 23.4 µM |
| O=C1C[C@@H](O)[C@@H]([C@@H](O)[C@@H](O)CO)O1 | 24.4 µM | 19.5 µM | > 100 µM | 12.9 µM | – | 23.6 µM | – | – | – | – | 19.6 µM | – | 19.3 µM | 16.5 µM | 20.3 µM |
| C=C[C@H](OCc1ccccc1)[C@H]1OC(=O)C[C@H]1O | 34.8 µM | 19.2 µM | > 100 µM | 17 µM | – | 17.2 µM | – | – | – | – | 12.9 µM | – | 23.4 µM | 25.1 µM | 29.1 µM |
| O=C1C[C@H]2O[C@H](CI)[C@H](O)[C@H]2O1 | – | – | – | – | > 1000 mg/L | – | > 1000 mg/L | inactive | > 100 mg/L | > 100 mg/L | – | > 100 mg/L | – | – | – |
